Measurements taken from US4950792A, “Substituted p,p'-methylene-bis-anilines” (Lonza Ltd., priority 1985, dated 1990).

How the values were obtained:
[1] = thermal stability: exotherm on heating; format: physicochemical; conditions: for exotherm of the product / time after which an exotherm could be determined: 350° C.
Description: Further, it was possible to establish that the compounds according to the invention are extremely temperature-stable. Thus, most of such compounds could be heated to 350° C. (comparison of MOCA around 200° C.) without the occurrence of an exotherm. The maximum possible working temperature with the new compounds consequently is substantially higher than with the usual chain-lengthening agents (comparison with MOCA, 140° C.). If this temperature is not used, at least the safe, decomposition-free working temperature range is substantially greater than the prior art compounds.

[2] = prior art; cited from earlier work

Nc1ccc(Cc2ccc(N)c(Cl)c2)cc1Cl [Amine I, 4,4'-methylene-bis(2-chloroaniline), reference compound]
temperature to which compound could be heated without the occurrence of an exotherm ([1]; comparison with MOCA): around 200 °C
carcinogenicity [2]: carcinogenicity

CCc1c(N)c(Cl)cc(Cc2cc(Cl)c(N)c(CC)c2Cl)c1Cl [Amine IV, 4,4'-Methylene-bis(2,5-dichloro-6-ethylaniline)]
exotherm of the product ([1]; time not stated): An exotherm

CCC(C)c1cc(Cc2cc(C(C)CC)c(N)c(C(C)CC)c2Cl)c(Cl)c(C(C)CC)c1N (stereo not drawn) [Amine IX, 4,4'-Methylene-bis-(3-chloro-2,6-di-sec-butylaniline)]
exotherm of the product ([1]; over 8 hours): No exotherm

CCc1cc(Cc2cc(CC)c(N)c(CC)c2Cl)c(Cl)c(CC)c1N [Amine V, 4,4'-Methylene-bis-(3-chloro-2,6-diethylaniline)]
exotherm of the product ([1]; over 8 hours): No exotherm

CCc1cc(Cc2cc(CC)c(N)c(C)c2Cl)c(Cl)c(C)c1N [Amine VI, 4,4'-Methylene-bis-(3-chloro-2-methyl-6-ethylaniline)]
exotherm of the product ([1]; over 8 hours): No exotherm

Cc1cc(Cc2cc(C)c(N)c(C(C)C)c2Cl)c(Cl)c(C(C)C)c1N [Amine VII, 4,4'-Methylene-bis-(5-chloro-2-methyl-6-isopropylaniline)]
temperature up to which no exotherm could be determined [1]: > 320 °C

Cc1c(N)c(C(C)C)cc(Cc2cc(C(C)C)c(N)c(C)c2Cl)c1Cl [Amine VIII, 4,4'-Methylene-bis(3-chloro-2-methyl-6-isopropylaniline)]
exotherm of the product ([1]; over 8 hours): No exotherm

CCC(C)c1c(N)c(C)cc(Cc2cc(C)c(N)c(C(C)CC)c2Cl)c1Cl (stereo not drawn) [Amine X, 4,4'-Methylene-bis(5-chloro-2-methyl-6-sec-butylaniline)]
temperature up to which no exotherm could be determined [1]: > 340 °C

CCc1c(N)c(C)cc(Cc2cc(C)c(N)c(CC)c2Cl)c1Cl [Example 2, 4,4'-Methylene-bis-(5-chloro-2-methyl-6-ethylaniline)]
exotherm of the product ([1]; over 8 hours): No exotherm

CC(C)c1cc(Cc2cc(C(C)C)c(N)c(C(C)C)c2Cl)c(Cl)c(C(C)C)c1N [Example 4, 4,4'-Methylene-bis(3-chloro-2,6-diisopropylaniline)]
time after which an exotherm could be determined [1]: 3 h

CCC(C)c1cc(Cc2cc(C(C)CC)c(N)c(C)c2Cl)c(Cl)c(C)c1N (stereo not drawn) [Example 9, 4,4'-Methylene-bis(3-chloro-2-methyl-6-sec-butylaniline)]
time after which an exotherm could be determined [1]: 2 h
